What was measured:
mtARt877s and gelsolin = mtARt877s and gelsolin (Homo sapiens, UniProt P10275, T878S); conditions: 10 μM HF, 100 nM DHT, 1 μM E2, 1 μM P; compared to EtOH
Text: Y190 yeast cells were transformed with pAS2-mtARt877s (aa 595-918) and pATC2-gelsolin (aa 281-731).

AR [1] = test: AR reporter gene assay with gelsolin (Example 5); assay type: cell-based, human; conditions: 100 nM HF; normal 10% FCS medium; no gelsolin
Text: 468. A C-terminal fragment of gelsolin (aa 281-731) was isolated from pACT2 encoding gelsolin, and inserted into pSG5-Gal4 DNA-binding domain (DBD) (constructed by Dr. R. Nakao). AR fragment (aa 36-918) was inserted into pCMX-VP16 (a gift from Dr. D. Chen). For gelsolin expression vector, a full-length cDNA fragment of gelsolin from LKCG, a gift from Dr. D. Kwiatkowski (Northwestern University, Evanston, Ill.), was inserted into pSG5. Dr. M. L. Lu (Harvard Medical School, Boston, Mass.) provided the p (ARE) 4-luciferase (LUC) plasmid. Dr. A. Mizokami (University of Kanazawa, Kanazawa, Japan) provided the pGL3-PSA6.0LUC plasmid. The expression plasmids of AR peptides were constructed by inserting the PCR amplified cDNA fragment of AR DBD into pFlag-CMV (Sigma) and the fragments of AR LBD into pCDNA-flag plasmid. Transfection protocol and reporter gene assay were described in previous report (Ting et al. Proc Natl Acad Sci USA 99, 661-666 (2002)).

wtAR and gelsolin = wtAR and gelsolin (Homo sapiens, UniProt P10275); conditions: COS-7 cells; T 10 nM; HF 1 μM
GR = biological target: T1, GR (Homo sapiens, UniProt P04150); test: GR transactivation luciferase assay with ARA267; assay type: cell-based; parameters: expressed in transfected cells; host or cells: DU145, PC-3, HepG2; conditions: HepG2 cells
T1 sequence (P04150 1-777): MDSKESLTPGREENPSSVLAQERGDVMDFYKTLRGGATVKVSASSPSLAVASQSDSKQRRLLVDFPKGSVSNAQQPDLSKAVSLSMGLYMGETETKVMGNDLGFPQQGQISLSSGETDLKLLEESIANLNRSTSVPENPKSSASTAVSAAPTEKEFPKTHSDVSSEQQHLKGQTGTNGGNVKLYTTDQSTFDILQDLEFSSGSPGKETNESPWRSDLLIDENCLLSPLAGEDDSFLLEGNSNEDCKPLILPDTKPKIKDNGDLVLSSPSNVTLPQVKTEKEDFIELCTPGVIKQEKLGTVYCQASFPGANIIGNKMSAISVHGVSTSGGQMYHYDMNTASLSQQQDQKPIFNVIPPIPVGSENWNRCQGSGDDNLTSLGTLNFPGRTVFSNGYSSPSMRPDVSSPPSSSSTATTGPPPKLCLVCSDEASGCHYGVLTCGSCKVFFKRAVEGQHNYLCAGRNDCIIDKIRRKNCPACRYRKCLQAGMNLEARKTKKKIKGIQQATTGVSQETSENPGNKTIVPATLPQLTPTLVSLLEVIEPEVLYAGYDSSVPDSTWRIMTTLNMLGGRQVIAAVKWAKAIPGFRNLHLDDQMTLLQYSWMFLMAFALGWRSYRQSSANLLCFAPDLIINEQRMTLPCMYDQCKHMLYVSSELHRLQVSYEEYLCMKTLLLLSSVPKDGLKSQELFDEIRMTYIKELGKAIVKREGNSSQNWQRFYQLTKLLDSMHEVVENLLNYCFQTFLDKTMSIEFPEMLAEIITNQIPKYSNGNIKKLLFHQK
Experimental: (§1) 31. […] The luciferase activity of each receptor without ARA267 and ligands was set as one fold. All values represent the mean SD of three independent experiments.
(§2) 444. Human prostate cancer cell line PC-3 and DU145, lung cancer cell line H1299, and hepatoma cell line HepG2 were grown in DMEM-10% FCS. For transfection the cells were plated in 60-mm dishes and experiments performed by modified calcium phosphate technique as previously described (Yeh et al. Proc. Natl. Acad. Sci. U.S.A. (1996) 93, 5517-5521). After incubation for 24 h, the cells were treated with steroid hormones for another 24 h, then harvested for the chloramphenicol acetyltransferase (CAT) assay. Mouse mammary tumor virus-(MMTV)-CAT reporter gene was used to measure AR transcription activity, and a β-Galactosidase expression gene (pCMV-O-gal) was incorporated into the experiments as an internal control (Yeh et al. Proc. Natl. Acad. Sci. U.S.A. (1996) 93, 5517-5521). CAT activity was visualized by a PhosphorImager (Molecular Dynamics) and quantitated by IMAGEQUANT software (molecular Dynamics). For Luciferase (LUC) assay, pG5-LUC, pMMTV-LUC or estrogen response element (ERE)-LUC plasmid was used as the reporter gene and SV40-PRL (promega) was used as an internal control. Dual-luciferase Reporter 1000 Assay System (promega) was employed to measure the luciferase activity.

ER = biological target: T2, ER (Homo sapiens, UniProt P03372); test: ER transactivation luciferase assay with ARA267; assay type: cell-based; parameters: expressed in transfected cells; host or cells: DU145, HepG2, PC3; conditions: HepG2 cells
T2 sequence (P03372 1-595): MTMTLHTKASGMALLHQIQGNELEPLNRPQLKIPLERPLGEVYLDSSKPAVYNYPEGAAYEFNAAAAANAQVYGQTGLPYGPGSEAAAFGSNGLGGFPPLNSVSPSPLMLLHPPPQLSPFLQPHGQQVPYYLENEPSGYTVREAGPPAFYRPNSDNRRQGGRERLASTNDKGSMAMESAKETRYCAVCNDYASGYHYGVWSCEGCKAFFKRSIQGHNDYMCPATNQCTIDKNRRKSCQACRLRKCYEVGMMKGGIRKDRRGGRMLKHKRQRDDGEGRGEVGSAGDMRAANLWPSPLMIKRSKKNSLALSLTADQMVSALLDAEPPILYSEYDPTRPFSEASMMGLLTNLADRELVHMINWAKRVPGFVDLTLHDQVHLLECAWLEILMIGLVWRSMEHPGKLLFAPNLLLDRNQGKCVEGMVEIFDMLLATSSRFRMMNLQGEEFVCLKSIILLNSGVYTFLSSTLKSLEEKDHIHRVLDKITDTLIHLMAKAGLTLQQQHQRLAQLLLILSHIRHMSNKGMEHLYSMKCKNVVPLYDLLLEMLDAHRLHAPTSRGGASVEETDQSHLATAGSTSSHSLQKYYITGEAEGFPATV
Experimental: as §1, §2

PSA = test: Western blot of PSA in LNCaP cells transfected with ARA267; assay type: cell-based, human; conditions: 10 nM DHT
Experimental: 447. LNCaP cells were transfected with pSG5ARA267 and pSG5 vector by Superfect (Qiagen) respectively. […] The cells were harvested and lysed following the protocol from Santa Cruz Biotechnology. In each sample, 50 μg whole-cell lysis proteins were separated on 10% SDS-polyacrylamide gel. After transfering, the membrane was blotted with polyclonal AR antibody (NH27), PSA antibody (Dako Corporation), and β-actin antibody (Santa Cruz Biotechnology). The bands were developed with an alkaline phosphatase detection kit (Bio-Rad).

AR [2] = test: AR transactivation reporter assay (CAT/LUC) with ARA267 (Example 4); assay type: cell-based, human
Experimental: as §2

Molecule | interaction between mtARt877s and gelsolin (β-gal activity) (mtARt877s and gelsolin) | inhibition of AR transactivation (AR [1]) | interaction between wtAR and gelsolin (wtAR and gelsolin) | effect on the transactivation of GR (GR) | effect on the transactivation of ER (ER) | effect on DHT-induced PSA protein expression (PSA) | effect on AR transactivation (AR [2]; 10 nM E2) | effect on DHT-mediated AR transactivation (AR [2]; PC-3 cells, MMTV-CAT)
CC(C)(O)C(=O)Nc1ccc([N+](=O)[O-])c(C(F)(F)F)c1 [HF, hydroxyflutamide] | promoted significant interaction | 80% | induced significant interaction | – | – | – | – | –
ARA267: AR coregulator of 2427 amino acids containing a SET domain, calculated molecular weight 267 kD | – | – | – | marginal effect | marginal effect | enhance DHT-induced PSA protein expression | marginal effects | enhance DHT-mediated AR transactivation in a dose-dependent manner

Reference: patent US20060270591A1, “Androgen receptor coregulators” (priority 2002, published 2006)
